IC50 and inhibition data for 34 compounds are collected here from ChEMBL document CHEMBL4330107, “Synthesis and biological evaluation of 3-aryl-4-indolyl-maleimides as potent mutant isocitrate dehydrogenase-1 inhibitors” (Bioorg Med Chem, 2019).

As usually defined, the IC50 is the concentration needed to halve the response being measured. As usually defined, the inhibition is the change of the read-out against control, counted positive when it falls.

The target of assay [1] is Isocitrate dehydrogenase [NADP] cytoplasmic (Homo sapiens, UniProt O75874, R132H). The assay can be described thus: Inhibition of recombinant human N-terminal GST-fused IDH1 R132H mutant expressed in Escherichia coli using alpha-ketoglutarate as substrate preincubated for 15 mins followed by substrate addition.
Sequence of Isocitrate dehydrogenase [NADP] cytoplasmic (Homo sapiens, UniProt O75874, R132H) (O75874 2-414 R132H limits assumed): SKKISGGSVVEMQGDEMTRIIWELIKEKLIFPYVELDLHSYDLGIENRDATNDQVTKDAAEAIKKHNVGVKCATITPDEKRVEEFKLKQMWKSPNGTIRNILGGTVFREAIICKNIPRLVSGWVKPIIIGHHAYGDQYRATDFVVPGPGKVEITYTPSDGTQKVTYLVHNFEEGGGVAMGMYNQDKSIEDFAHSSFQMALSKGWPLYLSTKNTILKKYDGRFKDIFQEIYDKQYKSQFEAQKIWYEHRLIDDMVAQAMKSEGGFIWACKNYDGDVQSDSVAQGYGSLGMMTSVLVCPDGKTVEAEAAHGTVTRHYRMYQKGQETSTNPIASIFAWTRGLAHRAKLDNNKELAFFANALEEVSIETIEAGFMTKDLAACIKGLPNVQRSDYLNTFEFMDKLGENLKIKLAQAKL
Assay [2] deals with Isocitrate dehydrogenase [NADP] cytoplasmic (Homo sapiens), O75874 [R132H]. The assay can be described thus: Inhibition of recombinant human N-terminal GST-fused IDH1 R132H mutant expressed in Escherichia coli at 20 ug/ml using alpha-ketoglutarate as substrate preincubated for 15 mins followed by substrate addition relative to control.
Sequence of Isocitrate dehydrogenase [NADP] cytoplasmic (Homo sapiens), O75874 [R132H] (O75874 whole entry R132H, the tested form may be a part): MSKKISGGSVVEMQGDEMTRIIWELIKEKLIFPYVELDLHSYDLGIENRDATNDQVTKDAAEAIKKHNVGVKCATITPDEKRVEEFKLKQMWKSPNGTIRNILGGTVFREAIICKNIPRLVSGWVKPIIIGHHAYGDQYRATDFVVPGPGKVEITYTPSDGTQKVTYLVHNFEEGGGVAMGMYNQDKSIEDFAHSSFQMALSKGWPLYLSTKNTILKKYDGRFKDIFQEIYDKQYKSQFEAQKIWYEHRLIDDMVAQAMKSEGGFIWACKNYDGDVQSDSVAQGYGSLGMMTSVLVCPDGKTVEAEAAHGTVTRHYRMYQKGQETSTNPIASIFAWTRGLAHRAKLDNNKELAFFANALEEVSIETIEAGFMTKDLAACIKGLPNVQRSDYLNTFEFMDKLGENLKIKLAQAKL
Assay [3] concerns the target T1, Isocitrate dehydrogenase [NADP], mitochondrial (Homo sapiens, UniProt P48735).
T1 sequence (P48735 whole entry): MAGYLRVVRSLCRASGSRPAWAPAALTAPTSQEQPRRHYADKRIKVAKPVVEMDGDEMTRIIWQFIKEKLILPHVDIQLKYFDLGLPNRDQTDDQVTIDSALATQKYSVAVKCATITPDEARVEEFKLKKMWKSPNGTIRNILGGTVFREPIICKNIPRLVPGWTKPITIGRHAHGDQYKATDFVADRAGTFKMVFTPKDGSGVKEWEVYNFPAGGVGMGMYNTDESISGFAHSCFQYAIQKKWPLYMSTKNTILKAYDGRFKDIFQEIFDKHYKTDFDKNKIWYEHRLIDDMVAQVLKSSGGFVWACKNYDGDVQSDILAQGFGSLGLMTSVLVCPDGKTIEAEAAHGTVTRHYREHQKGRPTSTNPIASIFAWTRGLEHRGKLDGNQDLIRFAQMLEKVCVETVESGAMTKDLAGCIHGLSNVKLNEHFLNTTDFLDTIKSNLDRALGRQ
The assay can be described thus: Inhibition of recombinant human N-terminal GST-fused wild-type IDH2 using sodium (D)-isocitrate as substrate preincubated for 15 mins followed by substrate addition by fluorescence assay.

A short description of assay [4]: Inhibition of bovine GDH using L-glutamate as substrate measured after 1 hr. Details: species or system Bos taurus.
The target in assay [5] is Isocitrate dehydrogenase [NADP] cytoplasmic (Homo sapiens, UniProt O75874, R132C). The assay can be described thus: Inhibition of recombinant human N-terminal GST-fused IDH1 R132C mutant expressed in Escherichia coli using alpha-ketoglutarate as substrate preincubated for 15 mins followed by substrate addition.
Sequence of Isocitrate dehydrogenase [NADP] cytoplasmic (Homo sapiens, UniProt O75874, R132C) (O75874 2-414 R132C limits assumed): as the sequence (O75874 2-414 R132H limits assumed) above, with H131C counted along it
Assay [6] addresses Isocitrate dehydrogenase [NADP] cytoplasmic (Homo sapiens, UniProt O75874, R132L). The assay can be described thus: Inhibition of recombinant human N-terminal GST-fused IDH1 R132L mutant expressed in Escherichia coli using alpha-ketoglutarate as substrate preincubated for 15 mins followed by substrate addition.
For assay [7], the target named is T2, Hexokinase-4 (Homo sapiens, UniProt P35557).
T2 sequence (P35557 whole entry): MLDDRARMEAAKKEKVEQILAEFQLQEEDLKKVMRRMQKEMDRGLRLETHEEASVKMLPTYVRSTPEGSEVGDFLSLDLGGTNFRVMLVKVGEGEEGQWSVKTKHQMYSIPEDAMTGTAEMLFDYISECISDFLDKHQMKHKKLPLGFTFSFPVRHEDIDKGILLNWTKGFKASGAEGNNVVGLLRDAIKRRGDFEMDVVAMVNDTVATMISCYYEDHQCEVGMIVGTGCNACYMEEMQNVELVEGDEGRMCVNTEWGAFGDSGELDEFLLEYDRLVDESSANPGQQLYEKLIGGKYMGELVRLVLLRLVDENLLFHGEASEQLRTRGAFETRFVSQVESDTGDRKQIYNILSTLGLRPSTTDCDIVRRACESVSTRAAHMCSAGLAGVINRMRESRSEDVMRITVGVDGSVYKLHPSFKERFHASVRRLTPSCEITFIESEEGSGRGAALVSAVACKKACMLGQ
The assay can be described thus: Inhibition of recombinant human N-terminal GST-fused glucokinase expressed in Escherichia coli using […] by spectrophotometric assay.

Assay [8] relates to Isocitrate dehydrogenase [NADP] cytoplasmic (Homo sapiens), O75874 [R132H]. The assay can be described thus: Inhibition of human IDH1 R132H mutant expressed in human U87MG cells assessed as reduction in 2-HG production after 48 hrs by LC-MS/MS analysis. Format: cell-based.
Assay [9] can be described thus: Inhibition of Fructose-1,6-bisphosphatase expressed in Escherichia coli BL21 (DE3) by glucose-6-phosphate dehydrogenase/phosphoglucoisomerase coupled spectrophotometric method. Details: species or system Corynebacterium glutamicum.
Assay [10] concerns the target Isocitrate dehydrogenase [NADP] cytoplasmic (Homo sapiens, UniProt O75874). The assay can be described thus: Inhibition of recombinant human N-terminal GST-fused wild-type IDH1 using sodium (D)-isocitrate as substrate by fluorescence assay.
Assay [11] has as its system Isocitrate dehydrogenase [NADP] cytoplasmic (Homo sapiens), O75874 [R132H]. The assay can be described thus: Inhibition of human IDH1 R132H mutant expressed in human U87MG cells assessed as reduction in 2-HG production at 5 to 20 uM after 48 hrs by LC-MS/MS analysis. Format: cell-based.
Assay [12] has the same test system. The assay can be described thus: Inhibition of IDH1 R132H mutant in human TF1 cells assessed as reversal of cell differentiation block by measuring increase in HBG mRNA expression at 5 to 10 uM after 7 days by RT-qPCR analysis. Format: cell-based. (Real-time PCR tracks product formation cycle by cycle.)

The source made the active and inactive calls. No cut-off for these calls is given here.

Sequence of Isocitrate dehydrogenase [NADP] cytoplasmic (Homo sapiens, UniProt O75874) (O75874 whole entry, the tested form may be a part): as the sequence (O75874 whole entry R132H, the tested form may be a part) above, with H132R counted along it
Sequence of Isocitrate dehydrogenase [NADP] cytoplasmic (Homo sapiens, UniProt O75874, R132L) (O75874 2-414 R132L limits assumed): as the sequence (O75874 2-414 R132H limits assumed) above, with H131L counted along it

For `Cc1cccc2c(C3=C(c4nn(C)c5ncccc45)C(=O)NC3=O)cn(CCCn3ccnc3)c12`, in [1], the IC50 amounted to 0.29 µM.
`O=C1NC(=O)C(n2ccc3ccncc32)=C1c1cn(CCCn2ccnc2)c2ccccc12`: the IC50 in assay [1] stood at 1.45 µM.
Consider `O=C1NC(=O)C(c2cn(CCCn3ccnc3)c3ccccc23)=C1c1cc[nH]c1`, for which the IC50 in assay [1] was determined as 1.58 µM.
`Cn1cc(C2=C(c3nn(CCCn4cncn4)c4ncccc34)C(=O)NC2=O)c2ccccc21`: the inhibition in assay [2] came out at 20.6%.
Consider `Cn1nc(C2=C(c3cn(CCCn4ccnc4)c4cc(Cl)ccc34)C(=O)NC2=O)c2cccnc21`, for which the IC50 in assay [3] was over 20 µM; in [4] it was over 20 µM; in [5] it was 0.423 µM; in assay [6], 0.307 µM; in assay [1], 0.14 µM; in assay [7], over 20 µM. Besides, the IC50 in [9] and in [10] was over 20 µM each time. In assay [8], the inhibition entry was “Dose-dependent effect”.
`O=C1NC(=O)C(c2cn(CCCn3ccnc3)c3ccccc23)=C1c1ccccc1`: the IC50 in assay [1] stood at 1.98 µM.
The same measure, in the same setting: under `Cn1nc(C2=C(c3cn(CCCn4ccnc4)c4cccc(Br)c34)C(=O)NC2=O)c2cccnc21` stands 0.93 µM; under `Cn1cc(C2=C(c3cn(CCCn4ccnc4)c4ccccc34)C(=O)NC2=O)c2ccccc21`, 1.48 µM.
As to `CCCCn1nc(C2=C(c3cn(CCCn4ccnc4)c4ccccc34)C(=O)NC2=O)c2cccnc21`, in assay [1], the IC50 came out at 0.95 µM.
As to `O=C1NC(=O)C(c2cn(CCCn3ccnc3)c3ccccc23)=C1c1coc2ncccc12`, the half-inhibitory concentration (IC50) in [1] is 2.22 µM.
On to `O=C1NC(=O)C(c2cn(CCCn3ccnc3)c3ccccc23)=C1c1cccc2ccccc12`, for which, in assay [1], the IC50 stood at 3.05 µM.
As for `COc1ccc2c(C3=C(c4nn(C)c5ncccc45)C(=O)NC3=O)cn(CCCn3ccnc3)c2c1`, the half-inhibitory concentration (IC50) in assay [1] stood at 0.19 µM.
`O=C1NC(=O)C(n2ccc3cnccc32)=C1c1cn(CCCn2ccnc2)c2ccccc12`: in [1], the IC50 is 3.72 µM.
Turning to `Cn1nc(C2=C(c3cn(CCCn4ccnc4)c4cc(F)ccc34)C(=O)NC2=O)c2cccnc21`, the IC50 in assay [3] is over 20 µM; in [4], over 20 µM; in [5], 0.334 µM; in assay [6], 0.246 µM; in assay [1], 0.09 µM; in [7] it was over 20 µM. Moreover, the 50% inhibitory concentration (IC50) in [9] and in assay [10] was over 20 µM in each case. In addition, the inhibition result in [8] is “Dose-dependent effect”.
With `Cn1cc(C2=C(c3nn(CCCn4ccnc4)c4ncccc34)C(=O)NC2=O)c2ccccc21`, in assay [1], the concentration for half-maximal inhibition (IC50) was 1.28 µM.
Still for that read-out and setting: under `Cn1nc(C2=C(c3cn(CCCn4ccnc4)c4ccccc34)C(=O)NC2=O)c2ccccc21` stands 1.54 µM; under `Cn1nc(C2=C(c3cn(CCn4ccnc4)c4ccccc34)C(=O)NC2=O)c2cccnc21`, 4.42 µM; under `Cn1nc(C2=C(c3cn(CCCn4ccnc4)c4ccc(F)cc34)C(=O)NC2=O)c2cccnc21`, 0.81 µM.
The same measure, in the same setting: under `COc1ccc2c(c1)c(C1=C(c3nn(C)c4ncccc34)C(=O)NC1=O)cn2CCCn1ccnc1` stands 13.6 µM.
In the case of `Cn1nc(C2=C(c3cn(CCCCn4ccnc4)c4ccccc34)C(=O)NC2=O)c2cccnc21`, the IC50 was over 20 µM in assay [3]; over 20 µM in assay [4]; 0.415 µM in assay [5]; 0.311 µM in assay [6]; 0.1 µM in assay [1]; over 20 µM in [7]. The 50% inhibitory concentration (IC50) in [9] and in assay [10] was over 20 µM each time. In assay [11], the inhibition result was “inactive”.
Consider `Cc1ccccc1C(C(=O)NC1CCCCC1)N(C(=O)Cn1ccnc1C)c1cccc(F)c1` (stereo not given), for which the IC50 in assay [3] was over 20 µM; in assay [4] it was over 20 µM; in assay [5], 0.227 µM; in [6], 0.186 µM; in assay [1] it was 0.02 µM; in [7], over 20 µM. Moreover, the IC50 in [9] and in assay [10] was over 20 µM in each case.
`Cn1nc(C2=C(c3cn(CCCn4cncn4)c4ccccc34)C(=O)NC2=O)c2cccnc21`: in assay [1], the IC50 worked out at 11.9 µM.
`O=C1NC(=O)C(n2cnc3ccccc32)=C1c1cn(CCCn2ccnc2)c2ccccc12`: the IC50 in assay [1] was found to be 7.91 µM.
For `Cn1nc(C2=C(c3cn(CCCn4ccnc4)c4cc(Br)ccc34)C(=O)NC2=O)c2cccnc21`, the IC50 in assay [3] is over 20 µM; in [4] it was over 20 µM; in assay [5], 0.46 µM; in assay [6] it was 0.192 µM; in assay [1], 0.06 µM; in [7], over 20 µM. Also, the IC50 in assay [9] and in assay [10] was over 20 µM each time. Also, the inhibition entry in assay [8] was “Dose-dependent effect”. For the same compound, the inhibition result in assay [12] is “Active”.
On to `Cn1nc(C2=C(c3cn(CCCO)c4ccccc34)C(=O)NC2=O)c2cccnc21`, for which the IC50 in [1] worked out at 39.6 µM.
As to `O=C1NC(=O)C(n2nnc3ccccc32)=C1c1cn(CCCn2ccnc2)c2ccccc12`, the concentration for half-maximal inhibition (IC50) in assay [1] turned out to be 1.4 µM.
As for `Cn1nc(C2=C(c3c[nH]c4ccccc34)C(=O)NC2=O)c2cccnc21`, the inhibition in assay [2] was found to be 38.1%.
With `Cn1cc(C2=C(c3nn(CCCN4CCOCC4)c4ncccc34)C(=O)NC2=O)c2ccccc21`, the inhibition in [2] was determined as 17.3%.
Take `Cn1nc(C2=C(c3cn(CCCn4ccnc4)c4ccc(Br)cc34)C(=O)NC2=O)c2cccnc21`: the IC50 in assay [1] was 5 µM.
Still for that read-out and setting: next, `CCn1nc(C2=C(c3cn(CCCn4ccnc4)c4ccccc34)C(=O)NC2=O)c2cccnc21`: 0.23 µM.
As to `Cn1nc(C2=C(c3cn(CCCN4CCOCC4)c4ccccc34)C(=O)NC2=O)c2cccnc21`, the inhibition in assay [2] is 7.36%.
As to `CN1C(=O)C(c2cn(CCCn3ccnc3)c3ccccc23)=C(c2nn(C)c3ncccc23)C1=O`, in assay [1], the IC50 amounted to 0.93 µM.
For `Cn1nc(C2=C(c3cn(CCCn4ccnc4)c4ccccc34)C(=O)NC2=O)c2cccnc21`, the IC50 in assay [3] is over 20 µM; in assay [4], over 20 µM; in [5] it was 0.386 µM; in [6], 0.398 µM; in assay [1], 0.05 µM; in assay [7] it was over 20 µM. The IC50 in assay [9] and in [10] was over 20 µM throughout. Also, the inhibition result in assay [11] is “inactive”.
Consider `Cc1ccc2c(C3=C(c4nn(C)c5ncccc45)C(=O)NC3=O)cn(CCCn3ccnc3)c2c1`, for which the IC50 in [3] is over 20 µM; in assay [4] it was over 20 µM; in assay [5], 0.483 µM; in assay [6] it was 0.189 µM; in assay [1] it was 0.06 µM; in assay [7] it was over 20 µM. In addition, the IC50 in assay [9] and in assay [10] was over 20 µM each time. The inhibition result in assay [8] is “Dose-dependent effect”.
